Experiment [1] has as its system autologous T responders. Kind of experiment: Suppression assay of treated antigen-specific nTreg with 10:1 autologous T responders and allogeneic DCs. The experiment is classed as cell-based. Particulars: 10:1 autologous T responders; proliferation measured on day +6; compared to DMSO. An excerpt:
Suppression assay of DMSO- or HDAC-treated, antigen-specific nTreg in culture with 10:1 autologous T responders and allogeneic DCs. Proliferation measured on day +6. […] PAN=Panobinostat, NEXT=Nexturastat-B, TUBA=Tubastatin. DMSO is vehicle control.

In experiment [2] the test system is T cell responders stimulated by allogeneic DCs. Kind of experiment: Suppression assay of pre-treated nTregs in mixed leukocyte reactions. The experiment is classed as cell-based, human. Particulars: nTregs exposed to drug for 5 days; nTreg:T cell ratio 1:500 or 1:50; no drug in secondary culture; compared to DMSO-treated nTregs. The procedure: The suppressive capacity of DC-allostimulated thymic Tregs previously exposed to HDTK032, tubastatin, or DMSO was tested at different ratios of Treg to T cell responders stimulated by fresh allogeneic DCs (DC:responder T cell ratio of 1:30) in mixed leukocyte reactions. No additional drugs or DMSO were added to the medium. […] Data are from one representative experiment of 3 independent studies performed.
Next we investigated whether HDAC6 blockade impacted nTreg function. Purified nTregs were stimulated with allogeneic moDCs plus IL-2 while exposed to tubastatin, HDTK032, or DMSO for 5 days. The nTregs were harvested and cultured with autologous T cells (nTreg:T cell ratio 1:500 or 1:50) targeting fresh allogeneic moDCs. No additional drugs were added to the secondary cultures.

Experiment [3] deals with allo-specific nTregs. Kind of experiment: Limiting dilution assay (LDA), frequency of allo-specific nTregs after 12 days with allogeneic moDCs. The experiment is classed as cell-based, human. Particulars: for mean fold expansion of allo-specific nTregs: 12 days with unrelated moDCs, compared to DMSO; for frequency of antigen-specific thymic Tregs: after 12 days of culture with allogeneic moDCs. How it is done: (§1) FIG. 1A show purified, human Tregs stimulated by allogeneic, monocyte-derived dendritic cells for 5-6 days, with HDTK032 or DMSO added once on day 0. The medium was also supplemented with IL-2 and IL-15. […] Proliferation was analyzed by Cell Trace Violet dilution among CD4^+, CD127^−, CD25^bright Tregs. […] FIG. 1C is a graph showing on-target alpha-tubulin acetylation of HDTK032 or DMSO treated Tregs. One representative experiment of 3 independent studies is shown. […] One representative donor Treg expansion of 4 independent experiments is shown. *P<0.05.
(§2) HDAC6-deficient mice are known to generate increased amounts of Tregs, both at stead-state in vivo and after polyclonal stimulation in vitro. However, such findings have never been translated to human immunity. Human nTregs (CD4^+, CD127^−, CD25+) were purified by magnetic bead isolation, stimulated with allogeneic moDCs, supplemented with IL-2, and treated with HDTK032, a selective and potent HDAC6 inhibitor, or DMSO (<0.01%) vehicle control once on day 0. After 5-6 days of culture, the nTregs were harvested and enumerated. […] Using the limiting dilution assay (LDA) we measured the precise frequency of allo-specific nTregs after stimulation with unrelated moDCs for 12 days. For these experiments, the HDAC6 inhibitors, HDTK032 and tubastatin, were compared against DMSO. Overall, the mean fold expansion was approximately 130-fold with either HDAC6 inhibitor compared to DMSO (FIG. 1D).

Experiment [4] concerns human nTregs (CD4+, CD127-, CD25+). Kind of experiment: Treg proliferation and expansion after stimulation with allogeneic moDCs, 5-6 days. Particulars: drug added once on day 0, compared to DMSO. The experiment is classed as cell-based. How it is done: as §1
as §2, with “Overall, the mean fold expansion was approximately 130-fold with either HDAC6 inhibitor compared to DMSO (FIG. 1D).” left out

The test system of experiment [5] is NSG mice with human skin xenograft. Kind of experiment: Human skin xenograft rejection model with adoptive transfer of pre-treated Tregs. Particulars: day +21; 5x10^4 nTregs expanded ex vivo with drug (tubastatin 1 μM, HDTK032 2.5 μM); no systemic drug; compared to PBMCs alone. The experiment is classed as in vivo. The procedure: NSG mice received a 1 cm^2 split thickness human skin graft. After 30 days of rest to permit engraftment, 5×10^6 human PBMCs (allogeneic to the skin) were injected into the mice. A week prior to PBMC injection, Tregs from the PBMC donor were expanded with mature DCs from the skin donor (Treg:DC ratio 30:1) and cultured for 5-6 days in the presence of DMSO (<0.1%), tubastatin (1 μM), HDTK032 (2.5 μM). In coordination with the PBMC injection, recipient mice were also inoculated with CD25-bead purified, Tregs (5×10^4) expanded with DMSO, tubastatin, HDTK032. A control group received PBMCs alone. FIG. 3A contains representative contour plots showing the purity (>95% pure) of the injected Tregs (CD4^+, CD127^−, CD25^bright, Foxp3+) for each experimental condition. […] Pooled data from 3 independent experiments, with up to 9 mice per experimental group. […]
FIGS. 5A to 5D show pathogenic Th17 cells are decreased in the periphery among mice treated with HDAC6-inhibited human Tregs. […] Recipient spleens were harvested on day +21, stained for Th17s (CD4^+, IL-17^+) or Tregs (CD4^+, CD127^−, CD25^bright, Foxp3^+), and analyzed by flow cytometry. […]
FIGS. 6A to 6C show circulating human Th1 cells are reduced after adoptive transfer of HDAC6-inhibited Tregs. […] Recipient spleens were harvested on day +21, stained for Th1s (CD4^+, IFNγ^+) or Th2s (CD4^+, IL-4^+), and analyzed by flow cytometry. […]
A general note: Xenograft models place foreign cells or tissue in a host animal.

Experiment [6] deals with HDAC6. Kind of experiment: On-target alpha-tubulin acetylation in treated nTregs. It counts as cell-based, human. Particulars: compared to DMSO. The procedure:
as §1
as §2, with “Overall, the mean fold expansion was approximately 130-fold with either HDAC6 inhibitor compared to DMSO (FIG. 1D).” left out

In experiment [7] the test system is antigen-specific nTreg. Kind of experiment: Proliferation of antigen-specific nTreg with allogeneic DC, IL-2 and IL-15 (CPM, day +6). It counts as cell-based. Particulars: drugs added once on day 0; CPM on day +6. An excerpt:
Purified nTreg+allogeneic dendritic cells (DC)+IL-2+IL-15. Drugs added once on day 0. Proliferation measured as CPM on day +6.

“Also recorded” adds a separate entry of the source.

With `CCCCN(Cc1ccc(C(=O)NO)cc1)C(=O)Nc1ccc2cn[nH]c2c1` [Nexturastat-B, Nexturastat B], the “suppressive function of nTreg” value in experiment [1] is listed as “significantly increase”.
In the case of `O=C(NO)c1ccc2c(c1)OC[C@H](c1ccccc1)N(C(=O)C1CCOCC1)C2` [HDTK032, (3S)—N-hydroxy-4-(oxane-4-carbonyl)-3-phenyl-2,3,4,5-tetrahydro-1,4-benzoxazepine-8-carboxamide], the “suppressive potency of pre-treated nTregs” value in experiment [2] was “significantly more potent”. Moreover, in experiment [3], the “mean fold expansion of allo-specific nTregs” value is “approximately 130 fold” and the “frequency of antigen-specific thymic Tregs” value is listed as “increase”. The “proliferative capacity of nTregs (CellTrace Violet dilution)” value in experiment [4] (5-6 days) is recorded as “increased”. For the same molecule, the “amount of nTregs” value in experiment [4] (after 5-6 days of culture) is “significantly increased; also recorded: increases”. The skin graft rejection entry in experiment [5] is “significantly reduced”. Moreover, the “amount of acetylated α-tubulin” value in experiment [6] is listed as “increase”.
In the case of `CN1CCc2c(c3ccccc3n2Cc2ccc(C(=O)NO)cc2)C1` [Tubastatin A, reference compound], in experiment [7], the “proliferation and expansion of antigen-specific nTreg” value is given as “significantly enhance”. Further, the “suppressive function of nTreg” value in experiment [1] is given as “significantly increase”. For the same molecule, the “suppressive potency of pre-treated nTregs” value in experiment [2] is recorded as “significantly more potent”. Moreover, in experiment [3], the “mean fold expansion of allo-specific nTregs” value was “approximately 130 fold” and the “frequency of antigen-specific thymic Tregs” value was “increase”. For the same molecule, the skin graft rejection result in experiment [5] was “significantly reduced”.

Values taken from US12636278B2, “HDAC6-inhibited human regulatory T cells” (H. LEE MOFFITT CANCER CENTER AND RESEARCH INSTITUTE, INC., priority 2020, dated 2026).
